Measured values taken from US20230398130A1, “METHODS AND COMPOSITIONS FOR DIFFERENTIATING STEM CELLS” (Massachusetts Institute of Technology, priority 2020, published 2023).

What was measured:
[1] = test system: ISC-enriched organoids; experiment: Primary screen, 384-well 2.5-D organoid differentiation (ENR+CD, 6 days, Target Selective Inhibitor Library, vs whole-plate median): ATP (CellTiter-Glo 3D, CTG); settings: for SSMD.CTG: strictly standardized mean difference; for Dose.FC.CTG: FC vs plate median; for Dose.FC.CTG (log 2 fold change): vs plate median
[2] = test system: ISC-enriched organoids; experiment: Primary screen, 384-well 2.5-D organoid differentiation (ENR+CD, 6 days): basal lysozyme secretion (LYZ.NS); type: cell-based, murine; settings: for SSMD.LYZ.NS: strictly standardized mean difference; for Dose.FC.LYZ.NS: FC vs plate median; for Z.LYZ.NS: standard z score of FC; for Dose.FC.LYZ.NS (log 2 fold change): vs plate median
Source text: (§1) High-throughput screening.

[3] = test system: ISC-enriched organoids; experiment: Primary screen, 384-well 2.5-D organoid differentiation (ENR+CD, 6 days): carbachol-induced lysozyme secretion (LYZ.S); type: cell-based, murine; settings: primary screen; for Z.LYZ.S: standard z score; for SSMD.LYZ.S: strictly standardized mean difference; for Dose.FC.LYZ.S: FC vs plate median; for Dose.FC.LYZ.S (log 2 fold change): vs plate median
Source text: as §1

[4] = primary screen, 1st of the 4 dose lines of the treatment (dose not given)
[5] = primary screen, 2nd of the 4 dose lines of the treatment (dose not given)
[6] = primary screen, 3rd of the 4 dose lines of the treatment (dose not given)
[7] = primary screen, 4th of the 4 dose lines of the treatment (dose not given)
[8] = 1st of the 4 dose lines of the treatment (dose not given)
[9] = 2nd of the 4 dose lines of the treatment (dose not given)
[10] = 3rd of the 4 dose lines of the treatment (dose not given)
[11] = 4th of the 4 dose lines of the treatment (dose not given)
[12] = primary screen, dose 0.08 uM, ENR+CD 6 days
[13] = primary screen, dose 0.40 uM, ENR+CD 6 days
[14] = primary screen, dose 2.00 uM, ENR+CD 6 days
[15] = primary screen, dose 10.00 uM, ENR+CD 6 days

O=C(C[S+]([O-])Cc1ccco1)NC/C=C\COc1cc(CN2CCCCC2)ccn1 (stereo not drawn) [Lafutidine]
Z.CTG ([1]; Dose 0.08 uM, primary screen, standard z score): 0.363 | Z.CTG ([1]; Dose 0.40 uM, primary screen, standard z score): 0.346 | Z.CTG ([1]; Dose 2.00 uM, primary screen, standard z score): 0.329 | Z.CTG ([1]; Dose 10.00 uM, primary screen, standard z score): −0.235 | SSMD.CTG [1, 4]: 0.452 | SSMD.CTG [1, 5]: 0.476 | SSMD.CTG [1, 6]: 0.505 | SSMD.CTG [1, 7]: −0.249 | SSMD.LYZ.NS [2, 4]: 0.285 | SSMD.LYZ.NS [2, 5]: 0.064 | SSMD.LYZ.NS [2, 6]: 0.359 | SSMD.LYZ.NS [2, 7]: 0.581 | Z.LYZ.S [3, 8]: 0.339 | Z.LYZ.S [3, 9]: 0.506 | Z.LYZ.S [3, 10]: 0.491 | Z.LYZ.S [3, 11]: −0.093 | SSMD.LYZ.S [3, 8]: 0.331 | SSMD.LYZ.S [3, 9]: 0.460 | SSMD.LYZ.S [3, 10]: 0.503 | SSMD.LYZ.S [3, 11]: −0.111

O=[N+]([O-])C=Cc1ccc2c(c1)OCO2
Dose.FC.CTG ([1]; Dose 0.08 uM, primary screen): −0.016 log 2 fold change | Z.CTG ([1]; Dose 0.08 uM, standard z score of FC): −0.037 | Dose.FC.CTG ([1]; Dose 0.40 uM, primary screen): 0.061 log 2 fold change | Z.CTG ([1]; Dose 0.40 uM, standard z score of FC): 0.146 | Dose.FC.CTG ([1]; Dose 2.00 uM, primary screen): 0.062 log 2 fold change | Z.CTG ([1]; Dose 2.00 uM, standard z score of FC): 0.148 | Dose.FC.CTG ([1]; Dose 10.00 uM, primary screen): −0.197 log 2 fold change | Z.CTG ([1]; Dose 10.00 uM, standard z score of FC): −0.469 | SSMD.CTG [1, 4]: −0.026 | SSMD.CTG [1, 5]: 0.148 | SSMD.CTG [1, 6]: 0.166 | SSMD.CTG [1, 7]: −0.338 | Dose.FC.LYZ.NS ([2]; Dose 0.08 uM, primary screen): 0.057 log 2 fold change | Z.LYZ.NS ([2]; Dose 0.08 uM): 0.499 | Dose.FC.LYZ.NS ([2]; Dose 0.40 uM, primary screen): −0.010 log 2 fold change | Z.LYZ.NS ([2]; Dose 0.40 uM): −0.088 | Dose.FC.LYZ.NS ([2]; Dose 2.00 uM, primary screen): 0.040 log 2 fold change | Z.LYZ.NS ([2]; Dose 2.00 uM): 0.347 | Dose.FC.LYZ.NS ([2]; Dose 10.00 uM, primary screen): −0.150 log 2 fold change | Z.LYZ.NS ([2]; Dose 10.00 uM): −1.307 | SSMD.LYZ.NS [2, 4]: 0.518 | SSMD.LYZ.NS [2, 5]: −0.082 | SSMD.LYZ.NS [2, 6]: 0.270 | SSMD.LYZ.NS [2, 7]: −0.670 | Dose.FC.LYZ.S ([3]; Dose 0.08 uM): 0.076 log 2 fold change | Dose.FC.LYZ.S ([3]; Dose 0.40 uM): 0.100 log 2 fold change | Dose.FC.LYZ.S ([3]; Dose 2.00 uM): 0.019 log 2 fold change | Dose.FC.LYZ.S ([3]; Dose 10.00 uM): −0.179 log 2 fold change | Z.LYZ.S [3, 8]: 0.493 | Z.LYZ.S [3, 9]: 0.648 | Z.LYZ.S [3, 10]: 0.124 | Z.LYZ.S [3, 11]: −1.157 | SSMD.LYZ.S [3, 8]: 0.451 | SSMD.LYZ.S [3, 9]: 0.331 | SSMD.LYZ.S [3, 10]: 0.073 | SSMD.LYZ.S [3, 11]: −0.676

O=[N+]([O-])c1ccc2c(c1)S(=O)(=O)C=C2 [Stattic]
Z.CTG (standard z score) ([1]; Dose 0.08 uM, primary screen): −0.191 | Dose.FC.CTG (log 2 fold change) ([1]; Dose 0.08 uM, primary screen): −0.080 | Z.CTG (standard z score) ([1]; Dose 0.40 uM, primary screen): −0.011 | Dose.FC.CTG (log 2 fold change) ([1]; Dose 0.40 uM, primary screen): −0.005 | Z.CTG (standard z score) ([1]; Dose 2.00 uM, primary screen): 0.078 | Dose.FC.CTG (log 2 fold change) ([1]; Dose 2.00 uM, primary screen): 0.033 | Z.CTG (standard z score) ([1]; Dose 10.00 uM, primary screen): −0.060 | Dose.FC.CTG (log 2 fold change) ([1]; Dose 10.00 uM, primary screen): −0.025 | Z.LYZ.NS (standard z score) ([2]; Dose 0.08 uM, primary screen): 1.131 | Dose.FC.LYZ.NS (log 2 fold change) ([2]; Dose 0.08 uM, primary screen): 0.130 | Z.LYZ.NS (standard z score) ([2]; Dose 0.40 uM, primary screen): 0.189 | Dose.FC.LYZ.NS (log 2 fold change) ([2]; Dose 0.40 uM, primary screen): 0.022 | Z.LYZ.NS (standard z score) ([2]; Dose 2.00 uM, primary screen): 1.276 | Dose.FC.LYZ.NS (log 2 fold change) ([2]; Dose 2.00 uM, primary screen): 0.147 | Z.LYZ.NS (standard z score) ([2]; Dose 10.00 uM, primary screen): −0.186 | Dose.FC.LYZ.NS (log 2 fold change) ([2]; Dose 10.00 uM, primary screen): −0.021 | Dose.FC.LYZ.S (log 2 fold change) ([3]; Dose 0.08 uM): 0.150 | Dose.FC.LYZ.S (log 2 fold change) ([3]; Dose 0.40 uM): 0.033 | Dose.FC.LYZ.S (log 2 fold change) ([3]; Dose 2.00 uM): 0.082 | Dose.FC.LYZ.S (log 2 fold change) ([3]; Dose 10.00 uM): −0.019

COc1ccc2c(c1)c(CC(=O)N1CCOCC1)c(C)n2C(=O)c1ccc(Cl)cc1 [BML-190]
Dose.FC.CTG [1, 12]: −0.003 log 2 fold change | Z.CTG ([1]; primary screen, dose 0.08 uM, standard z score of FC): −0.007 | Dose.FC.CTG [1, 13]: −0.099 log 2 fold change | Z.CTG ([1]; primary screen, dose 0.40 uM, standard z score of FC): −0.237 | Dose.FC.CTG [1, 14]: −0.106 log 2 fold change | Z.CTG ([1]; primary screen, dose 2.00 uM, standard z score of FC): −0.254 | Dose.FC.CTG [1, 15]: −0.106 log 2 fold change | Z.CTG ([1]; primary screen, dose 10.00 uM, standard z score of FC): −0.254 | Dose.FC.LYZ.NS [2, 12]: 0.072 log 2 fold change | Z.LYZ.NS ([2]; primary screen, dose 0.08 uM): 0.623 | Dose.FC.LYZ.NS [2, 13]: −0.017 log 2 fold change | Z.LYZ.NS ([2]; primary screen, dose 0.40 uM): −0.152 | Dose.FC.LYZ.NS [2, 14]: 0.116 log 2 fold change | Z.LYZ.NS ([2]; primary screen, dose 2.00 uM): 1.011 | Dose.FC.LYZ.NS [2, 15]: 0.209 log 2 fold change | Z.LYZ.NS ([2]; primary screen, dose 10.00 uM): 1.823 | Dose.FC.LYZ.S ([3]; dose 0.08 uM, ENR+CD 6 days): 0.060 log 2 fold change | Dose.FC.LYZ.S ([3]; dose 0.40 uM, ENR+CD 6 days): −0.037 log 2 fold change | Dose.FC.LYZ.S ([3]; dose 2.00 uM, ENR+CD 6 days): 0.017 log 2 fold change | Dose.FC.LYZ.S ([3]; dose 10.00 uM, ENR+CD 6 days): 0.067 log 2 fold change
